Seven compounds from ChEMBL document CHEMBL4840372, “Talarodrides A-F, Nonadrides from the Antarctic Sponge-Derived Fungus Talaromyces sp. HDN1820200” (J Nat Prod, 2021) can be followed below.

Structures are written as SMILES. ≈ marks a conversion by molar mass, not a printed value.

Assay [1] in a line: Cytotoxicity against human HO-8910 cells assessed as reduction in cell viability by SRB assay. It is filed as functional, cell-based. A general note: Sulforhodamine B stains cellular protein and so reports cell mass.
Assay [2] deals with U-87 MG. Nature of the assay: Cytotoxicity against human U87 cells assessed as reduction in cell viability by SRB assay. It is filed as functional, cell-based, U-87MG ATCC.
For assay [3], the system named is Bel-7402. Description: Cytotoxicity against human Bel-7402 cells assessed as reduction in cell viability by SRB assay. Type of assay: functional, cell-based.
The subject of assay [4] is NCI-H446. Description: Cytotoxicity against human NCI-H446 cells assessed as reduction in cell viability by SRB assay. Type of assay: functional, cell-based.
Assay [5] relates to Bacillus subtilis. Description: Antimicrobial activity against Bacillus subtilis assessed as reduction in bacterial growth by agar dilution method. It is filed as functional.
The subject of assay [6] is Proteus mirabilis. Description: Antimicrobial activity against Proteus mirabilis assessed as reduction in bacterial growth by agar dilution method. Type of assay: functional.
In assay [7] the test system is Mycolicibacterium phlei. Description: Antimicrobial activity against Mycobacterium phlei assessed as reduction in bacterial growth by agar dilution method. Type of assay: functional. On the technique in general: In agar dilution, organisms are placed on agar that contains the substance at set levels.
Assay [8] has as its system ASPC1. Nature of the assay: Cytotoxicity against human ASPC1 cells assessed as reduction in cell viability by SRB assay. Type of assay: functional, cell-based.
For assay [9], the system named is Acinetobacter baumannii. Nature of the assay: Antimicrobial activity against Acinetobacter baumannii assessed as reduction in bacterial growth by agar dilution method. Type of assay: functional.
For assay [10], the system named is MDA-MB-231. Description: Cytotoxicity against human MDA-MB-231 cells assessed as reduction in cell viability by SRB assay. Type of assay: functional, cell-based.
Assay [11] relates to K562. Description: Cytotoxicity against human K562 cells assessed as reduction in cell viability by MTT assay. It is filed as functional, cell-based. A general note: Tetrazolium dyes change colour on reduction, which living cells bring about.
Assay [12] deals with HCT-116. Description: Cytotoxicity against human HCT-116 cells assessed as reduction in cell viability by SRB assay. It is filed as functional, cell-based.
The test system of assay [13] is MGC-803. Description: Cytotoxicity against human MGC-803 cells assessed as reduction in cell viability by SRB assay. Type of assay: functional, cell-based.
Assay [14] concerns PC-3. Nature of the assay: Cytotoxicity against human PC-3 cells assessed as reduction in cell viability by SRB assay. Type of assay: functional, cell-based.
The subject of assay [15] is MCF7. Description: Cytotoxicity against human MCF7 cells assessed as reduction in cell viability by SRB assay. It is filed as functional, cell-based.
Assay [16] has as its system A549. Nature of the assay: Cytotoxicity against human A549 cells assessed as reduction in cell viability by SRB assay. It is filed as functional, cell-based.
Assay [17] relates to SH-SY5Y. Nature of the assay: Cytotoxicity against human SH-SY5Y cells assessed as reduction in cell viability by SRB assay. Type of assay: functional, cell-based.
The test system of assay [18] is Staphylococcus. Description: Antimicrobial activity against methicillin-resistant coagulase-negative Staphylococci assessed as reduction in bacterial growth by agar dilution method. It is filed as functional.
Assay [19] deals with Staphylococcus aureus. Description: Antimicrobial activity against methicillin-resistant Staphylococcus aureus assessed as reduction in bacterial growth by agar dilution method. It is filed as functional.
Assay [20] concerns GES1. Nature of the assay: Cytotoxicity against human GES1 cells assessed as reduction in cell viability by SRB assay. It is filed as functional, cell-based.
Assay [21] relates to Escherichia coli. Nature of the assay: Antimicrobial activity against Escherichia coli assessed as reduction in bacterial growth by agar dilution method. It is filed as functional.
In assay [22] the test system is Edwardsiella tarda. Nature of the assay: Antimicrobial activity against Edwardsiella tarda assessed as reduction in bacterial growth by agar dilution method. It is filed as functional.
Assay [23] deals with Vibrio parahaemolyticus. Description: Antimicrobial activity against Vibrio parahaemolyticus assessed as reduction in bacterial growth by agar dilution method. Type of assay: functional.
For assay [24], the system named is HeLa. Nature of the assay: Cytotoxicity against human HeLa cells assessed as reduction in cell viability by SRB assay. Type of assay: functional, cell-based.
Assay [25] has as its system L02. Description: Cytotoxicity against human L02 cells assessed as reduction in cell viability by SRB assay. Type of assay: cell-based.
Assay [26] has as its system Bacillus cereus. Description: Antimicrobial activity against Bacillus cereus assessed as reduction in bacterial growth by agar dilution method. Type of assay: functional.

Usually IC50 stands for the concentration at which inhibition is half-maximal. One may read the MIC as the least concentration at which growth counts as inhibited. For the compound `CCCCCCC1C([C@@H](O)C(=O)[C@H](O)CCC)C=C2C3(O)OC(=O)[C@]2(C)CC2=C(C(=O)OC2=O)C13` (stereo partly specified), the IC50 in assay [1], in assay [2], in assay [3], in assay [4], in assay [8] and in [10] was more than 30 µM throughout. The IC50 in assay [11], in assay [12], in assay [13], in assay [14], in assay [15] and in [16] was more than 30 µM in each case. In addition, the IC50 in assay [17], in assay [20], in [24] and in assay [25] was more than 30 µM throughout. In addition, the MIC is more than 50 µM in assay [5]; 12.5 µM (≈ 6.13 µg/mL) in [6]; more than 50 µM in assay [7]; more than 50 µM in assay [9]; more than 50 µM in [18]; more than 50 µM in assay [19]. For the same compound, the MIC in [21], in assay [22], in assay [23] and in [26] was more than 50 µM each time.

For `CCCCCCC1C([C@@H](O)C(=O)[C@H](C)CCC)C=C2C3(OC)OC(=O)[C@]2(C)CC2=C(C(=O)OC2=O)C13` (stereo partly specified), the IC50 in assay [1], in [2], in assay [3], in assay [4], in assay [8] and in assay [10] was more than 30 µM in each case. Besides, the IC50 in [11], in assay [12], in assay [13], in assay [14], in assay [15] and in assay [16] was more than 30 µM throughout. Moreover, the IC50 in assay [17], in assay [20], in assay [24] and in [25] was more than 30 µM each time. Moreover, the MIC in [5], in assay [6], in assay [7], in [9], in assay [18] and in assay [19] was more than 50 µM each time. For the same compound, the MIC in [21], in assay [22], in assay [23] and in assay [26] was more than 50 µM each time.

In the case of `CCCCCCC1C2C(=O)C(=CC1[C@@H](O)C(=O)[C@H](O)CCC)[C@](C)(C(=O)OC)CC1=C2C(=O)OC1=O` (stereo partly specified), the IC50 in assay [1], in [2], in assay [3], in [4], in assay [8] and in assay [10] was more than 30 µM throughout. Moreover, the IC50 in assay [11], in assay [12], in assay [13], in assay [14], in [15] and in assay [16] was more than 30 µM throughout. The IC50 in [17], in assay [20], in [24] and in assay [25] was more than 30 µM in each case. The MIC in assay [5], in assay [6], in assay [7], in assay [9], in assay [18] and in assay [19] was more than 50 µM each time. Also, the MIC in [21], in [22], in assay [23] and in assay [26] was more than 50 µM throughout.

With `CCCC[C@H]1CC2C([C@@H](O)C(=O)[C@H](O)CCC)C=C3C4(OC(=O)[C@]3(C)CC3=C(C(=O)OC3=O)C24)O1` (stereo partly specified), the IC50 in assay [1], in assay [2], in assay [3], in assay [4], in [8] and in [10] was more than 30 µM each time. Besides, the IC50 in [11], in assay [12], in assay [13], in [14], in assay [15] and in assay [16] was more than 30 µM each time. In addition, the IC50 in [17], in assay [20], in [24] and in [25] was more than 30 µM throughout. The MIC in assay [5], in [6], in assay [7], in [9], in [18] and in assay [19] was more than 50 µM in each case. Further, the MIC in assay [21], in assay [22], in assay [23] and in [26] was more than 50 µM in each case.

As to `CCCCCCC1C([C@@H](O)C(=O)[C@H](O)CCC)C=C2C3(OC)OC(=O)[C@]2(C)CC2=C(C(=O)OC2=O)C13` (stereo partly specified), the IC50 in [1], in assay [2], in [3], in assay [4], in assay [8] and in assay [10] was more than 30 µM in each case. In addition, the IC50 in assay [11], in assay [12], in assay [13], in assay [14], in assay [15] and in [16] was more than 30 µM each time. Also, the IC50 in [17], in assay [20], in [24] and in assay [25] was more than 30 µM each time. Further, the MIC is more than 50 µM in assay [5]; 3.13 µM (≈ 1.58 µg/mL) in assay [6]; more than 50 µM in assay [7]; more than 50 µM in assay [9]; more than 50 µM in assay [18]; more than 50 µM in assay [19]. Further, the MIC is more than 50 µM in assay [21], more than 50 µM in [22], 6.13 µM (≈ 3.09 µg/mL) in assay [23] and more than 50 µM in [26].

Regarding `O=C(O)c1cn(C2CC2)c2cc(N3CCNCC3)c(F)cc2c1=O` [CIPROFLOXACIN], the MIC in [5] was 0.195 µM (≈ 0.0646 µg/mL); in assay [6] it was 0.098 µM (≈ 0.0325 µg/mL); in assay [7], 0.195 µM (≈ 0.0646 µg/mL); in assay [9], 25 µM (≈ 8.28 µg/mL); in assay [18], 25 µM (≈ 8.28 µg/mL); in [19], 25 µM (≈ 8.28 µg/mL). For the same compound, the MIC worked out at 25 µM (≈ 8.28 µg/mL) in [21], 0.0245 µM (≈ 0.00812 µg/mL) in assay [22], 0.39 µM (≈ 0.129 µg/mL) in [23] and 0.78 µM (≈ 0.258 µg/mL) in [26].

With `CCCCCCC1C2C(=O)C(=CC1[C@@H](O)C(=O)[C@H](O)CCC)[C@@H](C)CC1=C2C(=O)OC1=O` (stereo partly specified), the IC50 in assay [1], in assay [2], in assay [3], in assay [4], in assay [8] and in assay [10] was more than 30 µM throughout. Besides, the IC50 in [11], in [12], in [13], in assay [14], in assay [15] and in assay [16] was more than 30 µM each time. Further, the IC50 in assay [17], in [20], in [24] and in [25] was more than 30 µM in each case. In addition, the MIC in assay [5], in assay [6], in assay [7], in assay [9], in assay [18] and in assay [19] was more than 50 µM throughout. For the same compound, the MIC in assay [21], in assay [22], in [23] and in assay [26] was more than 50 µM throughout.
